From BigSolDB 2.1

Cc1c(Br)cccc1C(=O)O
solubility (mole fraction)
Settings | in DMF | in THF | in acetonitrile | in cyclohexane | in ethanol | in ethyl acetate | in methanol
278.15 K | 0.104 | 0.169 | 0.00326 | – | 0.0358 | 0.027 | 0.0205
283.15 K | 0.126 | 0.183 | 0.00387 | 0.00076 | 0.0398 | 0.031 | 0.0261
288.15 K | 0.152 | 0.196 | 0.00473 | 0.00092 | 0.0449 | 0.0359 | 0.0301
293.15 K | 0.181 | 0.209 | 0.006 | 0.00113 | 0.0513 | 0.0413 | 0.0355
298.15 K | 0.216 | 0.222 | 0.00665 | 0.00135 | 0.0563 | 0.0464 | 0.041
303.15 K | 0.258 | 0.236 | 0.00779 | 0.00162 | 0.0631 | 0.0524 | 0.0479
308.15 K | 0.305 | 0.248 | 0.00955 | 0.00197 | 0.0703 | 0.0601 | 0.0559
313.15 K | 0.361 | 0.26 | 0.0113 | 0.00249 | 0.0831 | 0.0677 | 0.0641
318.15 K | 0.424 | 0.271 | 0.0138 | 0.00312 | 0.0936 | 0.0775 | 0.0724
323.15 K | 0.5 | 0.282 | 0.0164 | 0.00422 | 0.104 | 0.0879 | 0.0815
328.15 K | 0.584 | 0.293 | 0.0194 | 0.00529 | 0.121 | 0.101 | 0.0895
